Key:
[1] = biological target: T1, 5G-XoxF (Methylotuvimicrobium buryatense, UniProt A0A3F2YLY8); assay: DCPIP dye-linked dehydrogenase assay, A600; format: biochemical; details: PMS mediator, DCPIP acceptor; La(III) enzyme; 30 °C; 1.5 μM enzyme
T1 sequence (A0A3F2YLY8 27-617): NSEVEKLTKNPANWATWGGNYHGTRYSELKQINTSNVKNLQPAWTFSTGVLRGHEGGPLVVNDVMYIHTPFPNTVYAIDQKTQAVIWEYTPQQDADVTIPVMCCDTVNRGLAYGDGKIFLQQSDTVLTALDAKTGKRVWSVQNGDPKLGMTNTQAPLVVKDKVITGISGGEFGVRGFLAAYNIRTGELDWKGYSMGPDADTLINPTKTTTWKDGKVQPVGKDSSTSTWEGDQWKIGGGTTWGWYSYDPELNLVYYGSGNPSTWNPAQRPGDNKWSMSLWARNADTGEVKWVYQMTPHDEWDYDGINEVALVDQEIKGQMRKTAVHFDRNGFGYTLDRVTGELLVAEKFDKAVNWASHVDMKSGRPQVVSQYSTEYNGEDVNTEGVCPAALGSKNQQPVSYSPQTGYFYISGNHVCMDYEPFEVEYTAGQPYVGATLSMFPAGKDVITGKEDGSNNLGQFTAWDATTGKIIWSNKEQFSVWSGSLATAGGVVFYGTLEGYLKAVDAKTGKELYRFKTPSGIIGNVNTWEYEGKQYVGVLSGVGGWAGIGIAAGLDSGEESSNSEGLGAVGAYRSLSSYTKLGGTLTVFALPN

[2] = biological target: XoxF from Methylomicrobium buryatense 5GB1C (Methylomicrobium buryatense 5GB1C); assay: BLI

| Kd [2] [µM] | Molecule | specific activity [1] |
| --- | --- | --- |
|  | CO [methanol] | Purified 5G-XoxF exhibits methanol oxidation activity |
| 50 | particulate methane monooxygenase from Methylomicrobium buryatense 5GB1C (complex) |  |

Source: article PMC6370294 (Journal of biological inorganic chemistry : JBIC : a …, 2018)
